Source: PMC5085761 (International Journal of Molecular Sciences, 2016)

Experiments:
LLC-PK1 monolayers = test: Apical-to-basal transport through LLC-PK1 monolayers; format: in vitro ADME, pig; conditions: 10 µM tracer, at 120 min
Procedure: The LLC-PK1 cell line was purchased from DS Pharma Biomedical (Osaka, Japan). Cells were maintained in Dulbecco’s modified Eagle’s medium (DMEM; Life Technologies Japan, Tokyo, Japan) supplemented with 10% (v/v) fetal bovine serum (American Type Culture Collection, Manassas, VA, USA) and antibiotics (100 U/mL penicillin and 100 μg/mL streptomycin (Life Technologies Japan)). Cells were cultured at 37 °C under an atmosphere containing 5% CO2 before the start of the experiments.
Cells were seeded at a density of 1.5 × 10^6 cells/0.25 mL on the membrane of cell culture inserts fitting 24-well plates (upper compartment, apical side; Becton Dickinson, Franklin Lakes, NJ, USA). Flat-bottom 24-well tissue culture plates (Becton Dickinson) containing 0.95 mL of culture medium per well were used as the basolateral side (bottom compartment).
LLC-PK1 monolayer formation was monitored by the measurement of TER using an EVOM-2 and Endohm24 (World Precision Instruments, Inc., Sarasota, FL, USA) according to the manufacturer’s protocol. […] [^3H]Mannitol transport was measured as described in Section 4.3 for the validation of tight junction formation because mannitol passes through the cell monolayers via the paracellular route.
Experimental procedures were performed as described previously with minor modifications. After cultivation as described above, the culture media in both compartments were replaced with Na^+ buffer (137 mM NaCl, 2.7 mM KCl, 8 mM Na2HPO4, 1.5 mM KH2PO4, 5.6 mM D-glucose, 0.9 mM CaCl2, and 0.5 mM MgCl2; pH 7.4 at 37 °C), and the cells were preincubated for 10 min at 37 °C under normal air conditions. After the buffer was removed from each compartment, the permeability experiments were started with the addition of 0.25 mL of Na^+ buffer containing radiolabeled tracers (final concentration: 81 nM for [^3H]mannitol and 10 μM for the ^14C-labeled amino acid tracers) in each upper compartment, and 0.95 mL of Na^+ buffer in each bottom compartment. The inserts were placed into new 24-well culture plates containing 0.95 mL/well of Na^+ buffer after 5, 15, 30, 60, and 90 min of incubation. Subsequently, the cells were incubated up to 120 min at 37 °C under normal air conditions.
The apical-to-basal permeability was measured by sampling an aliquot of the buffer from the upper and bottom compartment at the indicated times. To evaluate intracellular accumulation, the cells were lysed in 0.5 mL of 0.1N NaOH at room temperature following rapid washing of the cells with ice-cold Na^+ buffer. The radioactivity of each aliquot was measured with an LSC6000SC (Beckman Coulter, Inc., Brea, CA, USA) or Tri-Carb 2910TR liquid scintillation counter (PerkinElmer) using Ultima Gold (PerkinElmer).

OAT3 = biological target: T1, OAT3 (Homo sapiens, UniProt Q8TCC7); test: Inhibition of tracer uptake in OAT3-expressing cells; format: in vitro ADME
T1 construct: host or cells: HEK293
T1 sequence (Q8TCC7 1-542): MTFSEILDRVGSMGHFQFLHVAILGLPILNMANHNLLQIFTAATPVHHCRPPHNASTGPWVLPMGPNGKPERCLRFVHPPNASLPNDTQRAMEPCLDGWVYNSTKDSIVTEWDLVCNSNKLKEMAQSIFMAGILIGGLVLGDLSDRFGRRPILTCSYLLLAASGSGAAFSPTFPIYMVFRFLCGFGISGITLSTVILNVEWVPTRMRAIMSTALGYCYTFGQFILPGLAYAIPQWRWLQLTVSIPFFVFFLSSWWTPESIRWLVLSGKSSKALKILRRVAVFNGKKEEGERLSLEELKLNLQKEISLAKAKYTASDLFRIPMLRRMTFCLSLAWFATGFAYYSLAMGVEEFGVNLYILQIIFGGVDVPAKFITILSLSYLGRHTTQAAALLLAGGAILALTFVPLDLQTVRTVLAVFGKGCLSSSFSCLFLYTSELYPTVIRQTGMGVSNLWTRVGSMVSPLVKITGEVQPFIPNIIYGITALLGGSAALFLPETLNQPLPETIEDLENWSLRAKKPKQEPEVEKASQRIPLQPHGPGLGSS
Procedure: For the SLC transporter experiments, Mock Flp-in-293 cells (Flp/mock), OAT1-expressing Flp-in-293 cells (Flp/OAT1), mock HEK293 cells (HEK/mock), and OATP1B3-expressing HEK293 cells (HEK/OATP1B3) were obtained from Kanazawa University (Ishikawa, Japan). Briefly, Flp-in-293 and HEK293 cells were transfected with the appropriate plasmid DNA and selected using antibiotics (hygromycin or G-418). All cell lines were cultured in DMEM (Life Technologies Japan) supplemented with 10% (v/v) fetal bovine serum (American Type Culture Collection) and antibiotics (100 U/mL penicillin and 100 μg/mL streptomycin (Life Technologies Japan) for mock cells, 0.2 mg/mL hygromycin for Flp/OAT1 cells, and 1.2 mg/mL G-418 (Roche Diagnostics K.K., Tokyo, Japan) for HEK/OATP1B3 cells) at 37 °C under an atmosphere containing 5% CO2. […]
The experiments were performed as described previously, with minor modifications. […] The cells were lysed in 0.3 mL of 0.1N NaOH at room temperature, after which the radioactivity of each aliquot was measured as described above. The protein concentration of the cell lysate was determined with a VersaMax microplate reader (Molecular Devices Japan K.K., Osaka, Japan) or SpectraMax i3x (Molecular Devices Japan K.K.; only for OATP1B1) using a BCA Protein Assay Kit (Thermo Fisher Scientific, Kanagawa, Japan). Tracer uptake was expressed as pmol/mg protein. […]

| inhibition by fluciclovine at millimolar concentrations observed (OAT3; OAT3, tracer [3H]ES 1 µM, 100 µM–10 mM fluciclovine) | OAT3-mediated ES uptake (OAT3; in the presence of 10 mM fluciclovine) | Structure (SMILES) | mean penetration amount (apical-to-basal transport) (LLC-PK1 monolayers) [pmol] | mean residual radioactivity in the cells (LLC-PK1 monolayers) [pmol] |
| --- | --- | --- | --- | --- |
| – | – | N[14C]1(C(=O)O)CC(F)C1 (stereo not drawn) [[^14C]fluciclovine, trans-1-amino-3-fluoro[1-^14C]cyclobutanecarboxylic acid] | 145 | 238 |
| not | increased | N[C@]1(C(=O)O)C[C@@H](F)C1 [fluciclovine] | – | – |
